Laboratory results from US9995734B2, “Human T cell line assay for evaluating the immunologic identity of glatiramer acetate preparations” (Mylan Inc., priority 2013, dated 2018).
Values joined by “and” are separate entries in the source; they are usually repeats but may differ in a detail not shown here. Equal values may be shown once.

Key:
Donor 1 COP T-Cell Lines = assay: Multiplex bead cytokine assay (FlowCytoMix), Donor 1 COP T-cell lines; type: cell-based, human
Method: Culture medium was removed from cultures prepared as for proliferation assay and utilized to measure cytokine production. In most cases culture medium was collected 18-24 hours after mixing T-cells, APC, and stimulating antigen. Cytokine production was measured by ELISA or bead assay. For measuring cytokine production, 100-150 μL culture medium (100 μL if culture was to be continued, otherwise 150 μL) was removed from each well. In some cases, the culture was continued 48 hours, for a total of 72 hours of culture, and the proliferative response measured.
(§1) The concentration of multiple cytokines was measured simultaneously using FlowCytoMix™ kits (eBioscience, San Diego Calif.). These are fluorescent bead based assays consisting of beads conjugated to anti cytokine antibodies. Beads specific for each cytokine are distinguished by size and fluorescence at 670 run. Cytokine bound to each bead is detected using a phycoerythrin conjugated antibody so that the fluorescence at 585 nm reflects the concentration of cytokine in the sample. Two kits were utilized which measured different cytokine panels. The TH1/TH2 kit measures IFN-γ, IL-1β, IL-2, IL-4, IL-5, IL-6, IL-8, IL-10, IL-12p70, TNF-α (TNF) and TNF-β (LT). The TH1/TH2/TH9/TH17/TH22 kit measures […], IL-1β, IL-2, IL-4, IL-5, IL-6, IL-9, IL-10, IL-12p70, IL-13, IL-17, IL-22, and TNF-α (TNF). Both kits were used following the manufacturer's instructions.
IL-12p70, IFN-γ, IL-2, IL-10, IL-8, IL-6, IL-5, IL-4, IL-1β, TNF-α (TNF), and TNF-β (LT) secretion were measured in response to stimulation with 1, 3, or 10 μg/mL GMA, or 1, 3, or 10 μg/mL COP, as well as a no-antigen control and an MBP control, in the presence of autologous EBV-transformed B-LCL.

[1] = test system: Donor 3 GMA Responsive T Cells; assay: Cytokine multiplex assay, Donor 3 GMA responsive T cells; type: cell-based, human; settings: culture medium
Method: as §1

[2] = 222-1C5, MBP control antigen, 24 hours after Day 56 restimulation
[3] = 222-2B8, MBP control antigen, 24 hours after Day 56 restimulation
[4] = 222-2E1, MBP control antigen, 24 hours after Day 56 restimulation
[5] = 222-B11 (so in the source), MBP control antigen, 24 hours after Day 56 restimulation
[6] = 222-1C5, 1 μg/mL, 24 hours after Day 56 restimulation
[7] = 222-1C5, 3 μg/mL, 24 hours after Day 56 restimulation
[8] = 222-1C5, 10 μg/mL, 24 hours after Day 56 restimulation
[9] = 222-1C5, 10 μg/mL, Day 34 supernatants
[10] = 222-1H12, 10 μg/mL, Day 34 supernatants
[11] = 222-2B8, 1 μg/mL, 24 hours after Day 56 restimulation
[12] = 222-2B8, 3 μg/mL, 24 hours after Day 56 restimulation
[13] = 222-2B8, 10 μg/mL, 24 hours after Day 56 restimulation
[14] = 222-2D2, 10 μg/mL, Day 34 supernatants
[15] = 222-2D8, 10 μg/mL, Day 34 supernatants
[16] = 222-2E1, 1 μg/mL, 24 hours after Day 56 restimulation
[17] = 222-2E1, 3 μg/mL, 24 hours after Day 56 restimulation
[18] = 222-2E1, 10 μg/mL, 24 hours after Day 56 restimulation
[19] = 222-B11 (so in the source), 1 μg/mL, 24 hours after Day 56 restimulation
[20] = 222-B11 (so in the source), 3 μg/mL, 24 hours after Day 56 restimulation
[21] = 222-B11 (so in the source), 10 μg/mL, 24 hours after Day 56 restimulation

## FFKNIVTPRTPPPSQGK [MBP]
Donor 1 COP T-Cell Lines; [2]
  IFN-γ: 64 pg/mL
  IL-2: 0 pg/mL
  IL-5: 0 pg/mL
  IL-10: 0 pg/mL
  IL-13: 82 pg/mL
  IL-22: 36 pg/mL
  TNF-α: 9 pg/mL
Donor 1 COP T-Cell Lines; [3]
  IFN-γ: 0 pg/mL
  IL-2: 0 pg/mL
  IL-5: 0 pg/mL
  IL-10: 0 pg/mL
  IL-13: 26.77 pg/mL
  IL-22: 20.62 pg/mL
  TNF-α: 0 pg/mL
Donor 1 COP T-Cell Lines; [4]
  IFN-γ: 20.69 pg/mL
  IL-2: 42.43 pg/mL
  IL-5: 0 pg/mL
  IL-10: 2.28 pg/mL and 2.3 pg/mL
  IL-13: 51.1 pg/mL
  IL-22: 107.54 pg/mL
  TNF-α: 13.51 pg/mL
Donor 1 COP T-Cell Lines; [5]
  IFN-γ: 0 pg/mL
  IL-2: 0 pg/mL
  IL-5: 0 pg/mL
  IL-10: 0 pg/mL
  IL-13: 0.83 pg/mL
  IL-22: 0 pg/mL
  TNF-α: 0 pg/mL

## glatiramer acetate [COP]
Donor 1 COP T-Cell Lines; [6]
  IFN-γ: 158 pg/mL
  IL-2: 0 pg/mL
  IL-5: 0 pg/mL
  IL-10: 11 pg/mL
  IL-13: 129 pg/mL
  IL-22: 0 pg/mL
  TNF-α: 11 pg/mL
Donor 1 COP T-Cell Lines; [7]
  IFN-γ: 256 pg/mL
  IL-2: 0 pg/mL
  IL-5: 0 pg/mL
  IL-10: 16 pg/mL
  IL-13: 254 pg/mL
  IL-22: 32 pg/mL
  TNF-α: 42 pg/mL
Donor 1 COP T-Cell Lines; [8]
  IFN-γ: 585 pg/mL
  IL-2: 40 pg/mL
  IL-5: 0 pg/mL
  IL-10: 49 pg/mL
  IL-13: 837 pg/mL
  IL-22: 42 pg/mL
  TNF-α: 42 pg/mL
Donor 1 COP T-Cell Lines; [9]
  IFN-γ: 416.83 pg/mL
  IL-1β: <= 0 pg/mL
  IL-2: <= 0 pg/mL
  IL-5: 56.39 pg/mL
  IL-8: <= 0 pg/mL
  IL-10: 50.58 pg/mL
  TNF-α: <= 0 pg/mL
  TNF-β: 15.34 pg/mL
Donor 1 COP T-Cell Lines; [10]
  IFN-γ: 3626 pg/mL
  IL-1β: 59 pg/mL
  IL-2: 0 pg/mL
  IL-4: 0 pg/mL
  IL-5: 398 pg/mL
  IL-10: 240 pg/mL
  TNF-α: 22 pg/mL
  TNF-β: 98 pg/mL
Donor 1 COP T-Cell Lines; [11]
  IFN-γ: 8.46 pg/mL
  IL-2: 0 pg/mL
  IL-5: 0 pg/mL
  IL-10: 2.99 pg/mL
  IL-13: 204.31 pg/mL
  IL-22: 83.01 pg/mL
  TNF-α: 0 pg/mL
Donor 1 COP T-Cell Lines; [12]
  IFN-γ: 39.91 pg/mL
  IL-2: 19.65 pg/mL
  IL-5: 30.3 pg/mL
  IL-10: 2.83 pg/mL
  IL-13: 1028.23 pg/mL
  IL-22: 77.82 pg/mL
  TNF-α: 0 pg/mL
Donor 1 COP T-Cell Lines; [13]
  IFN-γ: 119.12 pg/mL
  IL-2: 0 pg/mL
  IL-5: 314.77 pg/mL
  IL-10: 36.16 pg/mL
  IL-13: 2825.8 pg/mL
  IL-22: 143.57 pg/mL
  TNF-α: 91.29 pg/mL
Donor 1 COP T-Cell Lines; [14]
  IFN-γ: 120 pg/mL
  IL-1β: 130.9 pg/mL
  IL-2: 210.47 pg/mL
  IL-5: 38.13 pg/mL
  IL-8: 0.85 pg/mL
  IL-10: 45.09 pg/mL
  TNF-α: 30.87 pg/mL
  TNF-β: 23.15 pg/mL
Donor 1 COP T-Cell Lines; 222-2D8, 222-1H12, 222-1C5, 222-2D2, Day 34 supernatants
  IL-4, IL-6, or IL-12 detected: Little or no
Donor 1 COP T-Cell Lines; [15]
  IFN-γ: 3296 pg/mL
  IL-1β: 2535 pg/mL
  IL-2: 0 pg/mL
  IL-4: 0 pg/mL
  IL-5: 1587 pg/mL
  IL-10: 100 pg/mL
  TNF-α: 493 pg/mL
  TNF-β: 267 pg/mL
Donor 1 COP T-Cell Lines; [16]
  IFN-γ: 53.73 pg/mL
  IL-2: 26.46 pg/mL
  IL-5: 0 pg/mL
  IL-10: 5.3 pg/mL
  IL-13: 165.79 pg/mL
  IL-22: 72.54 pg/mL
  TNF-α: 25.28 pg/mL
Donor 1 COP T-Cell Lines; [17]
  IFN-γ: 163.61 pg/mL
  IL-2: 40.39 pg/mL
  IL-5: 0 pg/mL
  IL-10: 12.19 pg/mL
  IL-13: 1037.93 pg/mL
  IL-22: 40.37 pg/mL
  TNF-α: 0 pg/mL
Donor 1 COP T-Cell Lines; [18]
  IFN-γ: 405.26 pg/mL
  IL-2: 0 pg/mL
  IL-5: 106.24 pg/mL
  IL-10: 22 pg/mL
  IL-13: 2046.94 pg/mL
  IL-22: 60.95 pg/mL
  TNF-α: 333.22 pg/mL
Donor 1 COP T-Cell Lines; [19]
  IFN-γ: 0.65 pg/mL
  IL-2: 63.02 pg/mL
  IL-5: 0 pg/mL
  IL-10: 0 pg/mL
  IL-13: 47.69 pg/mL
  IL-22: 69.37 pg/mL
  TNF-α: 0 pg/mL
Donor 1 COP T-Cell Lines; [20]
  IFN-γ: 0 pg/mL
  IL-2: 0 pg/mL
  IL-5: 0 pg/mL
  IL-10: 0 pg/mL
  IL-13: 105.51 pg/mL
  IL-22: 45.67 pg/mL
  TNF-α: 0 pg/mL
Donor 1 COP T-Cell Lines; [21]
  IFN-γ: 47.35 pg/mL
  IL-2: 0 pg/mL
  IL-5: 119 pg/mL
  IL-10: 11.27 pg/mL
  IL-13: 1839.63 pg/mL
  IL-22: 19.45 pg/mL
  TNF-α: 13.51 pg/mL
Donor 1 COP T-Cell Lines; Line 105 (so in the source), Table 14 = 222-1C5, after appropriate dilution of supernatants
  IFN-γ production: comparable amounts
[1]; T-cell line 165-B5G
  IFN-γ: 190 pg/mL
  IL-4: 17 pg/mL
  IL-5: 374 pg/mL
  IL-13: 2927 pg/mL
  IL-22: 106 pg/mL
[1]; T-cell line 165-D8G
  IFN-γ: 115 pg/mL
  IL-4: 14 pg/mL
  IL-5: 309 pg/mL
  IL-13: 3121 pg/mL
  IL-22: 365 pg/mL
[1]; T-cell line 165-E9G
  IFN-γ: 638 pg/mL
  IL-4: 12 pg/mL
  IL-5: 208 pg/mL
  IL-13: 1232 pg/mL
  IL-22: 192 pg/mL
[1]; T-cell line 165-F8G
  IFN-γ: 771 pg/mL
  IL-4: 0 pg/mL
  IL-5: 297 pg/mL
  IL-13: 1017 pg/mL
  IL-22: 198 pg/mL
[1]; T-cell line 165-F10G
  IFN-γ: 1165 pg/mL
  IL-4: 122 pg/mL
  IL-5: 2586 pg/mL
  IL-13: 11285 pg/mL
  IL-22: 686 pg/mL
[1]; T-cell line 165-H11G
  IFN-γ: 724 pg/mL
  IL-4: 9 pg/mL
  IL-5: 321 pg/mL
  IL-13: 1095 pg/mL
  IL-22: 190 pg/mL
